Patent US12590118B2, “Salt and crystal form of steroid derivative regulator” (Shanghai Hansoh Biomedical Co., Ltd., priority 2019, dated 2026)

Target: GABA-A receptor
Assay: 35S-TBPS binding assay (GABAA receptor binding ability assay)
Set-up: species or system Sprague-Dawley rat
Settings: rat cerebral cortex cell membrane, 5 μM GABA, 2 nM 35S-TBPS; read-out: IC50 on inhibiting the TBPS binding activity, 35S-TBPS bindng assay
Experimental: 1. The cerebral cortex of male Sprague-Dawley rat was isolated.
2. A pre-chilled 0.32 M sucrose solution (one tablet of protease inhibitor was added per 100 mL) was added to the cerebral cortex (the volume of sucrose solution was 10 times the volume of the cerebral cortex). The mixture was crushed with a 50 mL glass tissue homogenizer in batches and mixed well.
3. The mixture was centrifuged at 1,500 g, 4° C. for 10 minutes, and the supernatant was collected.
4. The mixture was centrifuged at 20,000 g, 4° C. for 30 minutes, and the supernatant was discarded.
5. The precipitate was resuspended with the pre-chilled phosphate buffer saline (PBS) (one tablet of protease inhibitor was added per 100 mL). An average of 4 mL of PBS was added per rat, and the mixture was mixed well with a glass tissue homogenizer.
6. The mixture was centrifuged at 10,000 g, 4° C. for 10 minutes, and the supernatant was discarded.
7. Steps 5 and 6 were repeated three times.
8. Finally, the precipitate was resuspended with 4 volumes of PBS. The resulting solution was dispensed, frozen in liquid nitrogen, and stored at −80° C.
9. The protein concentration was measured by the bicinchoninic acid (BCA) method.
1. 230 μL of PBS was added to each well of a well plate with 1.1 mL volume.
2. 60 μL of the cerebral cortex cell membrane (5 μg/μL) solution was added to each well, and the mixture was mixed well.
3. The test compound (3 μL per well) was added, and the plate was incubated at 25° C. for 5 minutes. The DMSO concentration was 1%. The initial compound concentration was […], and a
3-fold dilution in gradient was carried out to obtain a total of 8 gradients and 2 replicates. 1% DMSO was used as a negative control, and 10 μM P026-2 was used as a positive control.
4. GABA was added at a final concentration of 5 μM, and incubated at 25° C. for 5 minutes. 1 mM GABA solution was formulated, and 1.5 μL of the solution was added to each well.
5. 35S-TBPS was added at a final concentration of 2 nM. The concentration of isotope mother solution was 9.7 μM. After dilution with PBS for 100 times, 6 μL of the diluted isotope solution was added to each well.
6. The plate was incubated at 4° C. for 20 hours.
7. The FilterMate GF/C plate was pre-treated with 0.5% PEI, and incubated at 4° C. for 1 hour.
8. The FilterMate GF/C plate was washed with Universal Harvester twice, 50 mL PBS each time.
9. The reaction solution was transferred to the GF/C plate, and each well was washed 4 times with 900 μL of PBS.
10. The washed GF/C plate was placed at 55° C. and dried for 10 minutes.
11. 40 μL of scintillation solution was added to each well, and the CPM value was read with TopCount.
In the experiment, the CPM (counts per minute) value was read with TopCount. According to the readings of the High control (DMSO) and the Low control (10 μM of the positive compound) experimental groups, the % inhibition was calculated based on the following formula: % Inhibition=100×(CPMHigh control−CPMsample)/(CPMHigh control−CPMLow control)
The IC50 of the compound was calculated according to the following 4-parameter nonlinear logic formula: Y=Bottom+(Top−Bottom)/(1+10^((Log IC50−X)*HillSlope)),
wherein: • X represents the log of compound concentration, • Y represents the % Inhibition.
The effect of the compound of the present invention on the TBPS binding activity was determined by the above test, and the measured IC50 values are shown in Table 5.

| Structure (SMILES) | IC50 [nM] |
| --- | --- |
| C[C@@]1(O)CC[C@H]2[C@H](CC[C@@H]3[C@@H]2CC[C@@]2(C)[C@H]3[C@@H]3C[C@@H]3[C@@H]2C(=O)Cn2ccc(C(F)(F)F)n2)C1 [Example 4, 1-((2R,4aS,4bR,6aS,7S,7aS,8aR,8bR,8cR,10aR)-2-Hydroxy-2,6a-dimethyloctadecahydrocyclopropa[4,5]cyclopenta[1,2-a]phenanthren-7-yl)-2-(3-(trifluoromethyl)-1H-pyrazol-1-yl)ethan-1-one] | 3.1 |
| C[C@@]1(O)CC[C@H]2[C@H](CC[C@@H]3[C@@H]2CC[C@@]2(C)[C@H]3[C@@H]3C[C@@H]3[C@@H]2C(=O)Cn2nccn2)C1 [Example 5, 1-((2R,4aS,4bR,6aS,7S,7aS,8aR,8bR,8cR,10aR)-2-Hydroxy-2,6a-dimethyloctadecahydrocyclopropa[4,5]cyclopenta[1,2-a]phenanthren-7-yl)-2-(2H-1,2,3-triazol-2-yl)ethan-1-one] | 14.7 |
| C[C@@]1(O)CC[C@H]2[C@H](CC[C@@H]3[C@@H]2CC[C@@]2(C)[C@H]3[C@@H]3C[C@@H]3[C@@H]2C(=O)Cn2ncnn2)C1 [Example 7, 1-((2R,4aS,4bR,6aS,7S,7aS,8aR,8bR,8cR,10aR)-2-Hydroxy-2,6a-dimethyloctadecahydrocyclopropa[4,5]cyclopenta[1,2-a]phenanthren-7-yl)-2-(2H-tetrazol-2-yl)ethan-1-one] | 21.3 |
| C[C@@]1(O)CC[C@H]2[C@H](CC[C@@H]3[C@@H]2CC[C@@]2(C)[C@H]3[C@@H]3C[C@@H]3[C@@H]2C(=O)Cn2cc(Cl)cn2)C1 [Example 14, 2-(4-Chloro-1H-pyrazol-1-yl)-1-((2R,4aS,4bR,6aS,7S,7aS,8aR,8bR,8cR,10aR)-2-hydroxy-2,6a-dimethyloctadecahydrocyclopropa[4,5]cyclopenta[1,2-a]phenanthren-7-yl)ethan-1-one] | 6.4 |
| C[C@@]1(O)CC[C@H]2[C@H](CC[C@@H]3[C@@H]2CC[C@@]2(C)[C@H]3[C@@H]3C[C@@H]3[C@@H]2C(=O)Cn2cc(C#N)c(C3CC3)n2)C1 [Example 24, 3-Cyclopropyl-1-(2-((2R,4aS,4bR,6aS,7S,7aS,8aR,8bR,8cR,10aR)-2-hydroxy-2,6a-dimethyloctadecahydrocyclopropa[4,5]cyclopenta[1,2-a]phenanthren-7-yl)-2-oxoethyl)-1H-pyrazole-4-carbonitrile] | 18.3 |
| C[C@@]1(O)CC[C@H]2[C@H](CC[C@@H]3[C@@H]2CC[C@@]2(C)[C@H]3[C@@H]3C[C@@H]3[C@@H]2C(=O)Cn2ncc(C#N)c2C2CC2)C1 [Example 25, 5-Cyclopropyl-1-(2-((2R,4aS,4bR,6aS,7S,7aS,8aR,8bR,8cR,10aR)-2-hydroxy-2,6a-dimethyloctadecahydrocyclopropa[4,5]cyclopenta[1,2-a]phenanthren-7-yl)-2-oxoethyl)-1H-pyrazole-4-carbonitrile] | 28.1 |
| Cc1nn(CC(=O)[C@H]2[C@H]3C[C@H]3[C@H]3[C@@H]4CC[C@@H]5C[C@](C)(O)CC[C@@H]5[C@H]4CC[C@@]32C)cc1C#N [Example 28, 1-(2-((2R,4aS,4bR,6aS,7S,7aS,8aR,8bR,8cR,10aR)-2-Hydroxy-2,6a-dimethyloctadecahydrocyclopropa[4,5]cyclopenta[1,2-a]phenanthren-7-yl)-2-oxoethyl)-3-methyl-1H-pyrazole-4-carbonitrile] | 15.4 |
| Cc1c(C#N)cnn1CC(=O)[C@H]1[C@H]2C[C@H]2[C@H]2[C@@H]3CC[C@@H]4C[C@](C)(O)CC[C@@H]4[C@H]3CC[C@@]21C [Example 29, 1-(2-((2R,4aS,4bR,6aS,7S,7aS,8aR,8bR,8cR,10aR)-2-Hydroxy-2,6a-dimethyloctadecahydrocyclopropa[4,5]cyclopenta[1,2-a]phenanthren-7-yl)-2-oxoethyl)-5-methyl-1H-pyrazole-4-carbonitrile] | 15.4 |
| C[C@@]1(O)CC[C@H]2[C@H](CC[C@@H]3[C@@H]2CC[C@@]2(C)[C@H]3[C@@H]3C[C@@H]3[C@@H]2C(=O)Cn2cc(F)cn2)C1 [Example 30, 2-(4-Fluoro-1H-pyrazol-1-yl)-1-((2R,4aS,4bR,6aS,7S,7aS,8aR,8bR,8cR,10aR)-2-hydroxy-2,6a-dimethyloctadecahydrocyclopropa[4,5]cyclopenta[1,2-a]phenanthren-7-yl)ethan-1-one] | 28.7 |
| CCOC(=O)c1cnn(CC(=O)[C@H]2[C@H]3C[C@H]3[C@H]3[C@@H]4CC[C@@H]5C[C@](C)(O)CC[C@@H]5[C@H]4CC[C@@]32C)c1 [Example 35, Ethyl 1-(2-((2R,4aS,4bR,6aS,7S,7aS,8aR,8bR,8cR,10aR)-2-hydroxy-2,6a-dimethyloctadecahydrocyclopropa[4,5]cyclopenta[1,2-a]phenanthren-7-yl)-2-oxoethyl)-1H-pyrazole-4-carboxylate] | 5 |
| C[C@@H]1C[C@H](C(=O)Cn2cc(C(F)(F)F)cn2)[C@@]2(C)CC[C@H]3[C@@H](CC[C@@H]4C[C@](C)(O)CC[C@@H]43)[C@H]12 [Example 39, 1-((3R,5R,8R,9R,10S,13S,14S,15R,17S)-3-Hydroxy-3,13,15-trimethylhexadecahydro-1H-cyclopenta[a]phenanthren-17-yl)-2-(4-(trifluoromethyl)-11H-pyrazol-1-yl)ethan-1-one] | 6.2 |
| C[C@@H]1C[C@H](C(=O)Cn2ccnn2)[C@@]2(C)CC[C@H]3[C@@H](CC[C@@H]4C[C@](C)(O)CC[C@@H]43)[C@H]12 [Example 42, 1-((3R,5R,8R,9R,10S,13S,14S,15R,17S)-3-Hydroxy-3,13,15-trimethylhexadecahydro-1H-cyclopenta[a]phenanthren-17-yl)-2-(1H-1,2,3-triazol-1-yl)ethan-1-one] | 24.6 |
| Cc1nnn(CC(=O)[C@H]2C[C@@H](C)[C@H]3[C@@H]4CC[C@@H]5C[C@](C)(O)CC[C@@H]5[C@H]4CC[C@@]32C)n1 [Example 43, 1-((3R,5R,8R,9R,10S,13S,14S,15R,17S)-3-Hydroxy-3,13,15-trimethylhexadecahydro-1H-cyclopenta[a]phenanthren-17-yl)-2-(5-methyl-2H-tetrazol-2-yl)ethan-1-one] | 5.4 |
| C[C@@H]1C[C@H](C(=O)Cn2ncnn2)[C@@]2(C)CC[C@H]3[C@@H](CC[C@@H]4C[C@](C)(O)CC[C@@H]43)[C@H]12 [Example 44, 1-((3R,5R,8R,9R,10S,13S,14S,15R,17S)-3-Hydroxy-3,13,15-trimethylhexadecahydro-1H-cyclopenta[a]phenanthren-17-yl)-2-(2H-tetrazol-2-yl)ethan-1-one] | 6.1 |
| C[C@@H]1C[C@H](C(=O)Cn2cc(C#N)c(C3CC3)n2)[C@@]2(C)CC[C@H]3[C@@H](CC[C@@H]4C[C@](C)(O)CC[C@@H]43)[C@H]12 [Example 47, 3-Cyclopropyl-1-(2-((3R,5R,8R,9R,10S,13S,14S,15R,17S)-3-hydroxy-3,13,15-trimethylhexadecahydro-1H-cyclopenta[a]phenanthren-17-yl)-2-oxoethyl)-1H-pyrazole-4-carbonitrile] | 7.6 |
| C[C@@H]1C[C@H](C(=O)Cn2cc(Cl)cn2)[C@@]2(C)CC[C@H]3[C@@H](CC[C@@H]4C[C@](C)(O)CC[C@@H]43)[C@H]12 [Example 68, 2-(4-Chloro-1H-pyrazol-1-yl)-1-((3R,5R,8R,9R,10S,13S,14S,15R,17S)-3-hydroxy-3,13,15-trimethylhexadecahydro-1H-cyclopenta[a]phenanthren-17-yl)ethan-1-one] | 9.6 |
